Structures are written as SMILES. A value given as a limit tells only on which side of the number the result lay.

For assay [1], the target named is T1, TLR3 (Homo sapiens, UniProt O15455).
T1 construct: purchased R &D
T1 sequence (O15455 24-904): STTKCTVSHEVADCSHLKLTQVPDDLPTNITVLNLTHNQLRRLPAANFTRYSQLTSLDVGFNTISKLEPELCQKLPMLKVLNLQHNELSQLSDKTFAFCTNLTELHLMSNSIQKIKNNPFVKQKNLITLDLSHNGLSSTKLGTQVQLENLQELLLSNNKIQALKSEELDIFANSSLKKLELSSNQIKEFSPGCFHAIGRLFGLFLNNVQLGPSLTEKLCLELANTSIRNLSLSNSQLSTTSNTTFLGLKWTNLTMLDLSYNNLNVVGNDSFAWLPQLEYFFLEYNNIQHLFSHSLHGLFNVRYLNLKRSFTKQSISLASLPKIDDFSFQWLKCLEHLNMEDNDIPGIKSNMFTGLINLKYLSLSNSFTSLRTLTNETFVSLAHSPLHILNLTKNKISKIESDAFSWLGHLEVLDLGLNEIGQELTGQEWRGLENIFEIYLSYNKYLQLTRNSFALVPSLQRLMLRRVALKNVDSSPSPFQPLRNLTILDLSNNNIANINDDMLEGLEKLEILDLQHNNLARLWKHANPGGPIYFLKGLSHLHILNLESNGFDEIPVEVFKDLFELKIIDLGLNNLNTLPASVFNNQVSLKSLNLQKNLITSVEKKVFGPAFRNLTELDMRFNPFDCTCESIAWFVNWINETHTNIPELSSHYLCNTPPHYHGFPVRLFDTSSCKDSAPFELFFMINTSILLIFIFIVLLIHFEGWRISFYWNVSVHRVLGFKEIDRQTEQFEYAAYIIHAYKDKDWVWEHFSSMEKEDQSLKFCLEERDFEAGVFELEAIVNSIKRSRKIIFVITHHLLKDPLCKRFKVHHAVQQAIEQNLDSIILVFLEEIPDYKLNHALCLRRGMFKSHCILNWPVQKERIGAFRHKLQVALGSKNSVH
Briefly: Fluorescence anisotropy assay, competition with Rhodamine labeled Poly IC. It is filed as binding. How it is done:
The anisotropy of Rhodamine labeled Poly IC increased from approximately 0.116 to 0.171 upon addition of TLR3 (excitation=546 nm; emission=576 nm).
In 500 μL Tris buffer (pH=7.2) add 5 μL (1 μg/mL) Rhodamine labeled Poly IC (Invivogen), test the anisotropy at excitation of 546 nm and emission of 576 nm (Horiba Fluorolog 3). An addition 3 μL (20 μM) of TLR3 (R &D) was added in the buffer, then test the anisotropy again. Following, 4a was added in the buffer from 0 to 68 μM, and the fluorescence anisotropy was tested when the concentration was changed.
A general note: Polarisation of emitted light reports the rotation of a fluorescent probe.

Assay [2] addresses T2, TLR3 (Mus musculus, UniProt Q99MB1).
T2 construct: endogenous in cells; host or cells: RAW 264.7
T2 sequence (Q99MB1 26-905): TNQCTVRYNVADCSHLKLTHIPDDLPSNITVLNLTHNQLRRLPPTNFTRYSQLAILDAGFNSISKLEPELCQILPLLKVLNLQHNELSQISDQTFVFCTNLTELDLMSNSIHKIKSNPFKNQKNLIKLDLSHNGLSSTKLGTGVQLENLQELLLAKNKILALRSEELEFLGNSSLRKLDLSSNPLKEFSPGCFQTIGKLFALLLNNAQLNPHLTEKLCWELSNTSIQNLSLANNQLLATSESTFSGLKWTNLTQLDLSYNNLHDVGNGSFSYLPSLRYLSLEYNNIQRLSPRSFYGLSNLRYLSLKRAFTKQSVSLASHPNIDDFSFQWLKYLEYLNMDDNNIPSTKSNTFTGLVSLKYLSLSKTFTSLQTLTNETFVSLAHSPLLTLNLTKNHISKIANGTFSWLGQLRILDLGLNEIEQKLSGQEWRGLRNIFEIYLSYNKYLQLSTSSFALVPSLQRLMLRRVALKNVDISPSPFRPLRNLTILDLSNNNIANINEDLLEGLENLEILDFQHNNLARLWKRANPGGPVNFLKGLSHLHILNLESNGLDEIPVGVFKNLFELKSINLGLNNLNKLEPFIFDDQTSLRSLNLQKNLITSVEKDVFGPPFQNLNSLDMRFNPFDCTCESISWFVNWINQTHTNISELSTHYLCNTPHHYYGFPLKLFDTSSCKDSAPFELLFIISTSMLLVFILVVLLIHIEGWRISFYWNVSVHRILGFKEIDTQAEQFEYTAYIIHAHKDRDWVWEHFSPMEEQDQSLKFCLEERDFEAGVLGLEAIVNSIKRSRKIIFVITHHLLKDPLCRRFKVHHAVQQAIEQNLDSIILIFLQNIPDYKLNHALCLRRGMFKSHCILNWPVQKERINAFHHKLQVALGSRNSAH
Briefly: In vitro TLR3 inhibition assay: Poly IC-induced NO production in RAW 264.7 cells. In kind it is cell-based. The source says: The initial hits (Figure A) were first evaluated using the present inventors' previously established high-throughput cell assay of TLR3 activation. See, for example, ACS Med. Chem. Lett. 2010, 1, 194 and Bioorg. Med. Chem. Lett., 2010, 20, 5411. Poly IC (Polyriboinosinic:polyribocytidylic acid) has been reported to selectively activate TLR3 signaling, resulting in the activation of nitric oxide synthase and the production nitric oxide (NO) in RAW 264.7 macrophage cells. The NO level was monitored as an indicator of Poly IC-induced TLR3 activation to evaluate the drug's inhibitory activity.
RAW 264.7 (Mouse leukaemic monocyte macrophage cell line) cells were grown in RPMI 1640 medium, supplemented with 10% FBS, penicillin (100 U/mL) and streptomycin ([…]). RAW cells were then planted in 96-well plates at 100,000 cells per well and grown for 24 h in the media descried previously at 37° C. in a 5% CO2 humidified incubator. After 24 h, non-adherent cells and media were removed and replaced with fresh RPMI 1640 medium (only RPMI). The adherent macrophages were treated with high molecular weight polyinosine-polycytidylic acid (Poly IC) (10 μg/mL) (Invivogen), an agonist of TLR3, and then added different concentrates of potential inhibitor. Two rows were only treated with Poly IC as an control. Plates were then incubated for an additional 24 h. Following incubation 100 μL of media was removed and added to flat black 96-well microfluor plates (Thermo Scientific, MA, USA). To each well, 10 μL of 2,3-diaminonaphthalene (0.05 mg/mL in 0.62 M aqueous HCl solution) was added and incubated for 15 min in the dark. The reaction was quenched by addition of 5 μL of a 3 M aqueous NaOH solution and the plate was read on Beckman Coulter DTX880 reader (Beckman Coulter, Calif., USA) with excitation at 365 nm and emission at 450 nm. The nitrite (a stable metabolite of nitric oxide) concentration was determined from a nitrite standard curve. The inhibition rate (%) of NO release was determined using the following formula: Inhibition (%)=[Poly IC(OD450)−Compounds (OD450)]/[Poly IC(OD450)−Control (OD450)]×100. The IC50 values for both inhibition and cytotoxicity were determined graphically using software Origin v7.5.

Where [3] appears, read: whole cell inhibitory activity, Poly IC-induced NO, RAW 264.7, average ± SD, at least three independent tests.
Where [4] appears, read: whole cell inhibitory activity, second part of Table 1 (R5/R6 series).
Where [5] appears, read: Poly IC-induced TLR3 activation, cell assay.

With `O=C(N[C@H](Cc1ccccc1)C(=O)O)c1cc2ccccc2s1` [Compound 1a, (R)-2-(benzo[b]thiophene-2-carboxamido)-3-phenylpropanoic acid], the “TLR3 binding competition with dsRNA” value in assay [1] is listed as “does not show any significant binding to TLR3”. In assay [2] (setting [3]), this molecule gave an IC50 of more than 155 µM.
In assay [2] (setting [4]), `O=C(O)[C@@H](Cc1ccc(O)cc1)NS(=O)(=O)c1ccccc1F` [Compound 17a, (R)-2-(2-fluorophenylsulfonamido)-3-(4-hydroxyphenyl)propanoic acid] gave an IC50 of more than 100 µM.
The same measure, in the same setting: the figure for `O=C(O)[C@H](Cc1ccc(O)cc1)NS(=O)(=O)c1ccccc1F` [Compound 17b, (S)-2-(2-fluorophenylsulfonamido)-3-(4-hyroxyphenyl)propanoic acid] is more than 100 µM.
For the molecule `O=C(O)[C@@H](Cc1ccc(O)cc1)NS(=O)(=O)c1cccc(F)c1` [Compound 18a, (R)-2-(3-fluorophenylsulfonamido)-3-(4-hydroxyphenyl)propanoic acid], the IC50 in assay [2] (setting [4]) is more than 100 µM.
Still for that read-out and setting: the figure for `O=C(O)[C@H](Cc1ccc(O)cc1)NS(=O)(=O)c1cccc(F)c1` [Compound 18b, (S)-2-(3-fluorophenylsulfonamido)-3-(4-hydroxyphenyl)propanoic acid] is more than 100 µM; for `O=C(O)[C@@H](Cc1ccc(O)cc1)NS(=O)(=O)c1ccc(F)cc1` [Compound 19a, (R)-2-(4-fluorophenylsulfonamido)-3-(4-hydroxyphenyl)propanoic acid] it is more than 100 µM; for `O=C(O)[C@H](Cc1ccc(O)cc1)NS(=O)(=O)c1ccc(F)cc1` [Compound 19b, (S)-2-(4-fluorophenylsulfonamido)-3-(4-hydroxyphenyl)propanoic acid] it is more than 100 µM.
For `O=C(O)[C@@H](Cc1ccccc1)NS(=O)(=O)c1ccccc1F` [Compound T5260630, reference compound], the IC50 in assay [2] (setting [5]) came out at 145 ± 3.7 µM; in assay [2] (setting [3]) it was 145 ± 4 µM.
For `O=C(N[C@H](Cc1ccccc1)C(=O)O)c1cc2c(s1)CCCCC2` [Compound T5626448, reference compound] the same measures were 154 ± 5.9 µM and 154 ± 6 µM.

What is called IC50 is the point on the concentration scale where inhibition reaches its midpoint.

These data come from US9409880B2, “Modulators of TLR3/dsRNA complex and uses thereof” (The Regents of the University of Colorado, a body corporate, priority 2011, dated 2016).
